# Patent publication US10570168B2, “2′ and/or 5′ amino-acid ester phosphoramidate 3′-deoxy adenosine derivatives as anti- cancer compounds” (NuCana plc, priority 2014, dated 2020)
# What was measured:
# [1] = test system: HepG2; test: CellTiterGlo viability assay, initial screening; format: cell-based; conditions: Homo sapiens, HepG2, 72 h, read-out: IC50 (relative IC50)
# Experimental: (§1) In vitro viability assays were performed to assess the effects of compounds on cell viability in 7 selected cell lines over 72 hr using the CellTiterGlo (CTG, Promega-G7573) assay. The tests were performed in duplicates with treatment of compounds at 9 points, 3.16 folds titration in 96 well plates over ˜72 hr. The compound starting concentrations were […]. Cell viability assay using CellTiterGlo in 96-well plate were performed. The compound treatment was 72 hrs, under standard growth conditions, and in duplicate. Compounds were dissolved to 40 mM with thawed […]. Compounds were serially diluted at 3.16 fold in thawed DMSO, and warmed to 37° C. before being dissolved in media (2 μl+200 μl). After compounds were dissolved in media (media was also warmed to 37° C.). Media containing compounds were warmed to 37° C. in incubator and then compounds in media were added to cell plates (50 μl+50 μl), in duplicates. The compounds final concentrations were from […] to 19.9 nM. All compound solubilities were checked and recorded again, then the plates were transferred to CO2 tissue culture incubator immediately and incubated for 3 days. DMSO final concentration is 0.5%.
# [2] = test system: HL-60; test: CellTiterGlo viability assay, initial screening; format: cell-based; conditions: Homo sapiens, HL-60, 72 h, read-out: IC50 (relative IC50)
# Experimental: as §1
# [3] = test system: MOLT-4; test: CellTiterGlo viability assay, initial screening; format: cell-based; conditions: Homo sapiens, MOLT-4, 72 h, read-out: IC50 (relative IC50)
# Experimental: as §1
# [4] = test system: K562; test: CellTiterGlo viability assay, initial screening; format: cell-based; conditions: Homo sapiens, K562, 72 h, read-out: IC50 (relative IC50)
# Experimental: as §1
# [5] = test system: MCF-7; test: CellTiterGlo viability assay, initial screening; format: cell-based; conditions: Homo sapiens, MCF7, 72 h, read-out: IC50 (relative IC50)
# Experimental: as §1
# [6] = test system: KG-1; test: CellTiterGlo viability assay, initial screening; format: cell-based; conditions: Homo sapiens, KG-1, 72 h, read-out: IC50 (relative IC50)
# Experimental: as §1
# [7] = test system: CCRF-CEM; test: CellTiterGlo viability assay, initial screening; format: cell-based; conditions: Homo sapiens, 72 h, read-out: IC50 (relative IC50)
# Experimental: as §1
# [8] = test system: HL-60 (TdT negative); test: ATP (ViaLight plus) cytotoxicity assay; format: cell-based, Human; conditions: Homo sapiens, HL-60, 72 h
# Experimental: (§2) Certain compounds of the invention were subjected to further studies to test the cytotoxic activity of certain compounds of the invention and also to measure their activity against 4 haematological cancer cell lines • TdT positive CEM (Human ALL) • TdT negative K562 (Human CML) • TdT negative H1-60 (Human ANLL) • RL (CRL-2261) non-HD lymphoma • The concentrations of the active metabolite dATP (Cordycepin triphosphate) in these cell lines was also measured. • The cytotoxic activity and the intracellular 3′-dATP concentrations were also studied in the presence of hENT1, Adenosine Kinase (AK) and Adenosine Deaminase pharmacological inhibitors in CEM and RL cancer cell lines. Said inhibitors that mimic known cancer resistance mechanisms. Methods Cell Culture
# (§3) HL-60 (ATCC® CCL-240™), K562 (ATCC® CCL-243™), CCRF-CEM (ATCC® CRM-CCL-119™) and RL (ATCC® CRL-2261™) leukaemia cell lines, obtained from the American Type Culture Collection (ATCC), Middlesex. HL-60 and K562 cell lines are deoxynucleotidyl transferase-negative (TdT-ve), whereas CCRF-CEM cell line is TdT+ve.
# (§4) HL-60, K562, CCRF-CEM and RL cell lines were cultured in RPMI-1640 medium (Sigma Aldrich, UK), which were supplemented with 10% Fetal Bovine Serum (FBS) (PAA Laboratories), 1% amphotericin B (5.5 ml) and 1% penicillin/streptomycin (5.5 ml) (PAA Laboratories) and grown in flasks at 37° C. incubator with 5% CO2.
# (§5) The amount of ATP was used as a measurement of cell number and cell viability. ATP ViaLight™ plus assay kit (Lonza, USA: Product No. LT07-121) to detect ATP in cells treated in luminescence compatible 96 well plates (initial concentration of cells was 1×10^4 cells/well) with cordycepin and ProTides at concentrations of: 0, 0.1, 0.5, 1, 5 and 10 μM, followed by incubation for 72 hours at 37° C. incubator with 5% CO2. For inhibitor studies, 10 μM of NBTI or 1 μM EHNA or A-134974 was added and left for 5 minutes before adding the drugs (see section 5 for inhibitor details).
# (§6) After incubation, 50 μl of cell lysis reagent was added to the 96 well plates to release the intracellular ATP, followed by 100 μl of ATP monitoring reagent (AMR). The luminescent values of each well were determined using FLUOstar OPTIMA microplate reader (BMG Labtech) which convert ATP into light by using luciferase enzyme. Therefore, the amount of luminescence produced was directly proportional to the amount of ATP.
# (§7) The dose-response curves of cytotoxicity of the drugs was determined using non-linear regression analysis of percentage cell viability versus concentration and EC50 values were obtained. The intracellular assay was conducted in five replicates for each condition. Intracellular assay was determined using paired t test (two-tailed) analysis of 3′ATP/ATP concentration and p-values were obtained. For all the analysis, Prism Software program (GraphPad Software) was used and Microsoft Powerpoint® 2013 was used to plot the results.
# [9] = test system: K562 (TdT negative); test: ATP (ViaLight plus) cytotoxicity assay; format: cell-based, Human; conditions: Homo sapiens, K562, 72 h
# Experimental: as §2, §3, §4, §5, §6, §7
# [10] = test system: CCRF-CEM (TdT positive CEM); test: ATP (ViaLight plus) cytotoxicity assay; format: cell-based, Human; conditions: CEM (TdT+ve)
# Experimental: as §2, §3, §4, §5, §6
# (§8) Cell lines were treated in the same way as described above but before treatment with drugs, a number of inhibitors were added: • 1) Nitrobenzylthioinosine (NBTI) (Sigma-Aldrich, St. Louis, Mo., product # N2255) blocks nucleoside transporters • 2) EHNA hydrochloride (Sigma-Aldrich, St. Louis, Mo., product # E114) blocks adenosine deaminase • 3) Adenosine kinase inhibitor A-134974 dihydrochloride hydrate (Sigma-Aldrich, St. Louis, Mo., product # A2846): blocks adenosine kinase
# as §7
# [11] = test system: RL (CRL-2261); test: ATP (ViaLight plus) cytotoxicity assay; format: cell-based; conditions: 72 h, CRL (RL, CRL-2261)
# Experimental: as §2, §3, §4, §5, §6, §8, §7
smiles,measurement,setting,value
"CCCCCOC(=O)[C@H](CC(C)C)NP(=O)(OC[C@@H]1C[C@@H](O)[C@H](n2cnc3c(N)ncnc32)O1)Oc1cccc2ccccc12 (mixture of isomers) [D, (2S)-pentyl 2-(((((2S,4R,5R)-5-(6-amino-9H-purin-9-yl)-4-hydroxytetrahydrofuran-2-yl)methoxy)(naphthalen-1-yloxy)phosphoryl)amino)-4-methylpentanoate]",IC50,[1],5 to 15 µM
same,IC50,[2],5 to 15 µM
same,IC50,[3],0.1 to 5 µM
same,IC50,[4],5 to 15 µM
same,IC50,[5],0.1 to 5 µM
same,IC50,[6],5 to 15 µM
same,IC50,[7],5 to 15 µM
same,IC50,[8],5.4 µM
same,IC50,[9],4.2 µM
same,(FD) fold difference compared to Cordycepin = Cordycepin IC50/ProTide IC50,[10],(3)
same,IC50,"[10]; Homo sapiens, CCRF-CEM, 72 h, 72 hours",6.1 µM
same,IC50,[11],4.8 µM
